In brackets after ≈: the same amount, converted by molar mass.
Tests used:
[1] = test system: methicillin-resistant Staphylococcus aureus (MRSA); test: In vitro antibacterial activity, broth microdilution (MIC90); settings: read-out: Antibacterial activity MIC90, MRSA
Text: (§1) MIC90 measurement was made according to the broth microdilution method based on the CLSI document [Clinical and Laboratory Standards Institute Document.
(§2) The test compounds in DMSO solution were further diluted 20-fold with sterile distilled water.

[2] = test system: linezolid- and vancomycin-resistant Enterococcus faecalis (LVRE); test: as above; settings: read-out: Antibacterial activity MIC90, LVRE
Text: as §1, §2

SMILES	MIC90 [1] [µg/mL]	MIC [2] [µg/mL]
C#CCN1CCN(c2ccc(N3C[C@H](CNC(C)=O)OC3=O)cc2F)C=N1 [Compound 5]	1 (≈ 2.68 µM)	8 (≈ 21.4 µM)
CC(=O)CN1CCN(c2ccc(N3C[C@H](CNC(C)=O)OC3=O)cc2F)C=N1 [Compound 37]	2 (≈ 5.11 µM)	8 (≈ 20.4 µM)
CC(=O)NC[C@H]1CN(c2ccc(N3C=NN(C(=O)C4CC4)CC3)c(F)c2)C(=O)O1 [Compound 13]	4 (≈ 9.92 µM)	16 (≈ 39.7 µM)
CC(=O)NC[C@H]1CN(c2ccc(N3C=NN(CC(F)(F)F)CC3)c(F)c2)C(=O)O1 [Compound 8]	4 (≈ 9.58 µM)	16 (≈ 38.3 µM)
O=CN1CCN(c2ccc(N3C[C@H](CNc4ccon4)OC3=O)cc2)C=N1 [Compound 100]	0.5 (≈ 1.35 µM)	32 (≈ 86.4 µM)
CC(=O)NC[C@H]1CN(c2ccc(N3C=NN(C)CC3)c(F)c2)C(=O)O1 [Compound 3]	2 (≈ 5.72 µM)	8 (≈ 22.9 µM)
C=C(Cl)CN1CCN(c2ccc(N3C[C@H](CNC(C)=O)OC3=O)cc2F)C=N1 [Compound 40]	2 (≈ 4.88 µM)	8 (≈ 19.5 µM)
O=C1O[C@@H](CO)CN1c1ccc(N2C=NNCC2)c(F)c1 [Compound 93]	1 (≈ 3.4 µM)	32 (≈ 109 µM)
CCN1CCN(c2ccc(N3C[C@H](CNC(C)=O)OC3=O)cc2F)C=N1 [Compound 6]	2 (≈ 5.5 µM)	8 (≈ 22 µM)
O=CN1CCN(c2ccc(N3C[C@H](CNC(=S)C(F)F)OC3=O)cc2F)C=N1 [Compound 77]	0.5 (≈ 1.2 µM)	4 (≈ 9.63 µM)
C#CCN1CCN(c2ccc(N3C[C@H](Cn4ccnn4)OC3=O)cc2F)C=N1 [Compound 84]	0.5 (≈ 1.3 µM)	16 (≈ 41.7 µM)
N#CCN1CCN(c2ccc(N3C[C@H](CNC(=O)C(F)F)OC3=O)cc2F)C=N1 [Compound 50]	2 (≈ 4.87 µM)	16 (≈ 39 µM)
CNC(=S)N1CCN(c2ccc(N3C[C@H](CNC(C)=O)OC3=O)cc2F)C=N1 [Compound 19]	0.5 (≈ 1.22 µM)	4 (≈ 9.79 µM)
CC(=S)NC[C@H]1CN(c2ccc(N3C=NN(C(=O)CO)CC3)c(F)c2)C(=O)O1 [Compound 76]	0.5 (≈ 1.22 µM)	2 (≈ 4.88 µM)
COC(=S)NC[C@H]1CN(c2ccc(N3C=NN(C=O)CC3)cc2)C(=O)O1 [Compound 97]	0.5 (≈ 1.32 µM)	8 (≈ 21.2 µM)
CN1CCN(c2c(F)cc(N3C[C@H](CNc4ccon4)OC3=O)cc2F)C=N1 [Compound 106]	0.5 (≈ 1.27 µM)	16 (≈ 40.8 µM)

SMILES	MIC90 [1] [µg/mL]	MIC [2] [µg/mL]
C=C(Cl)CN1CCN(c2ccc(N3C[C@H](CNC(=S)OC)OC3=O)cc2F)C=N1 [Compound 66]	0.5 (≈ 1.13 µM)	4 (≈ 9.05 µM)
C=C(C)CN1CCN(c2ccc(N3C[C@H](CNC(C)=O)OC3=O)cc2F)C=N1 [Compound 39]	2 (≈ 5.14 µM)	8 (≈ 20.5 µM)
CC(=O)NC[C@H]1CN(c2ccc(N3C=NN(C)CC3)cc2)C(=O)O1 [Compound 96]	2 (≈ 6.04 µM)	16 (≈ 48.3 µM)
C#CCN1CCN(c2ccc(N3C[C@H](CNC(=S)C(F)F)OC3=O)cc2F)C=N1 [Compound 78]	0.5 (≈ 1.18 µM)	4 (≈ 9.4 µM)
COC(=S)N1CCN(c2ccc(N3C[C@H](CNC(C)=O)OC3=O)cc2F)C=N1 [Compound 30]	1 (≈ 2.44 µM)	4 (≈ 9.77 µM)
C#CCN1CCN(c2ccc(N3C[C@H](CNC(=S)OC)OC3=O)cc2F)C=N1 [Compound 63]	0.5 (≈ 1.23 µM)	4 (≈ 9.87 µM)
COC(=S)NC[C@H]1CN(c2ccc(N3C=NN(C)CC3)cc2)C(=O)O1 [Compound 98]	1 (≈ 2.75 µM)	16 (≈ 44 µM)
CC(=S)NC[C@H]1CN(c2ccc(N3C=NN(CC#N)CC3)c(F)c2)C(=O)O1 [Compound 75]	0.25 (≈ 0.64 µM)	2 (≈ 5.12 µM)
CC(=O)NC[C@H]1CN(c2ccc(N3C=NN(CC#N)CC3)c(F)c2)C(=O)O1 [Compound 7]	1 (≈ 2.67 µM)	8 (≈ 21.4 µM)
C=CCN1CCN(c2ccc(N3C[C@H](CNC(=S)OC)OC3=O)cc2F)C=N1 [Compound 62]	0.0625 (≈ 0.153 µM)	2 (≈ 4.91 µM)
CCN1CCN(c2ccc(N3C[C@H](CNC(=O)C(F)F)OC3=O)cc2F)C=N1 [Compound 48]	4 (≈ 10 µM)	16 (≈ 40.1 µM)
CCOC(=O)N1CCN(c2ccc(N3C[C@H](CNC(C)=O)OC3=O)cc2F)C=N1 [Compound 35]	2 (≈ 4.91 µM)	8 (≈ 19.6 µM)
N#CCC(=O)NC[C@H]1CN(c2ccc(N3C=NN(C=O)CC3)c(F)c2)C(=O)O1 [Compound 42]	8 (≈ 20.6 µM)	32 (≈ 82.4 µM)
CC(=O)NC[C@H]1CN(c2ccc(N3C=NN(C(C)=O)CC3)c(F)c2)C(=O)O1 [Compound 10]	4 (≈ 10.6 µM)	32 (≈ 84.8 µM)
CCOC(=O)CN1CCN(c2ccc(N3C[C@H](CNC(C)=O)OC3=O)cc2F)C=N1 [Compound 24]	2 (≈ 4.75 µM)	16 (≈ 38 µM)
CCN1CCN(c2ccc(N3C[C@H](CNc4ccon4)OC3=O)cc2F)C=N1 [Compound 90]	2 (≈ 5.15 µM)	8 (≈ 20.6 µM)

Next, values leading:

MIC90 [1] [µg/mL]	MIC [2] [µg/mL]	SMILES
2 (≈ 5.79 µM)	32 (≈ 92.7 µM)	O=C1O[C@@H](Cn2ccnn2)CN1c1ccc(N2C=NNCC2)c(F)c1 [Compound 82]
8 (≈ 18.2 µM)	32 (≈ 72.8 µM)	CC(=O)NC[C@H]1CN(c2ccc(N3C=NN(C(=S)OCCO)CC3)c(F)c2)C(=O)O1 [Compound 32]
2 (≈ 5.08 µM)	32 (≈ 81.3 µM)	CCOC(=O)NC[C@H]1CN(c2ccc(N3C=NN(C=O)CC3)c(F)c2)C(=O)O1 [Compound 43]
0.5 (≈ 1.22 µM)	4 (≈ 9.77 µM)	CCOC(=S)NC[C@H]1CN(c2ccc(N3C=NN(C=O)CC3)c(F)c2)C(=O)O1 [Compound 54]
0.25 (≈ 0.68 µM)	4 (≈ 10.9 µM)	COC(=S)NC[C@H]1CN(c2ccc(N3C=NNCC3)c(F)c2)C(=O)O1 [Compound 58]
16 (≈ 39.2 µM)	64 (≈ 157 µM)	CC(=O)NC[C@H]1CN(c2ccc(N3C=NN(CC(=O)NO)CC3)c(F)c2)C(=O)O1 [Compound 26]
0.5 (≈ 1.27 µM)	4 (≈ 10.2 µM)	CC(=O)NC[C@H]1CN(c2ccc(N3C=NN(C(C)=S)CC3)c(F)c2)C(=O)O1 [Compound 34]
2 (≈ 5.95 µM)	16 (≈ 47.6 µM)	CC(=O)NC[C@H]1CN(c2ccc(N3C=NOCC3)c(F)c2)C(=O)O1 [Compound 28]
4 (≈ 9.47 µM)	8 (≈ 18.9 µM)	CC(=O)NC[C@H]1CN(c2ccc(N3C=NN(C(=O)NCCO)CC3)c(F)c2)C(=O)O1 [Compound 15]
8 (≈ 20.4 µM)	64 (≈ 163 µM)	CCNC(=O)NC[C@H]1CN(c2ccc(N3C=NN(C=O)CC3)c(F)c2)C(=O)O1 [Compound 44]
1 (≈ 2.49 µM)	8 (≈ 19.9 µM)	CC(=O)NC[C@H]1CN(c2ccc(N3C=NN(C(=O)CC#N)CC3)c(F)c2)C(=O)O1 [Compound 11]
2 (≈ 5.29 µM)	8 (≈ 21.1 µM)	CC(=O)NC[C@H]1CN(c2ccc(N3C=NN(C(N)=O)CC3)c(F)c2)C(=O)O1 [Compound 14]
1 (≈ 2.36 µM)	8 (≈ 18.9 µM)	CCOC(=S)N1CCN(c2ccc(N3C[C@H](CNC(C)=O)OC3=O)cc2F)C=N1 [Compound 31]
1 (≈ 3.1 µM)	64 (≈ 199 µM)	O=CN1CCN(c2ccc(N3C[C@H](CO)OC3=O)cc2F)C=N1 [Compound 92]
0.25 (≈ 0.679 µM)	2 (≈ 5.43 µM)	COC(=S)NC[C@H]1CN(c2ccc(N3C=NOCC3)c(F)c2)C(=O)O1 [Compound 57]
4 (≈ 10.5 µM)	64 (≈ 169 µM)	CC(=O)NC[C@H]1CN(c2ccc(N3C=NN(CCO)CC3)c(F)c2)C(=O)O1 [Compound 27]
16 (≈ 38.6 µM)	64 (≈ 154 µM)	CC(=O)NC[C@H]1CN(c2ccc(N3C=NN(S(N)(=O)=O)CC3)c(F)c2)C(=O)O1 [Compound 20]
4 (≈ 10.2 µM)	32 (≈ 81.6 µM)	CC(=O)NC[C@H]1CN(c2ccc(N3C=NN(CC(N)=O)CC3)c(F)c2)C(=O)O1 [Compound 25]

MIC90 [1] [µg/mL]	MIC [2] [µg/mL]	SMILES
0.5 (≈ 1.09 µM)	8 (≈ 17.4 µM)	CC(=O)OCC(=O)N1CCN(c2ccc(N3C[C@H](CNc4ccon4)OC3=O)cc2F)C=N1 [Compound 88]
2 (≈ 5.39 µM)	16 (≈ 43.1 µM)	O=C(NC[C@H]1CN(c2ccc(N3C=NNCC3)c(F)c2)C(=O)O1)C(F)F [Compound 46]
2 (≈ 4.56 µM)	8 (≈ 18.2 µM)	CC(=O)NC[C@H]1CN(c2ccc(N3C=NN(C(=S)NCCO)CC3)c(F)c2)C(=O)O1 [Compound 33]
0.5 (≈ 1.23 µM)	16 (≈ 39.4 µM)	O=CN1CCN(c2c(F)cc(N3C[C@H](CNc4ccon4)OC3=O)cc2F)C=N1 [Compound 105]
2 (≈ 5.3 µM)	32 (≈ 84.8 µM)	CN1CCN(c2c(F)cc(N3C[C@H](Cn4ccnn4)OC3=O)cc2F)C=N1 [Compound 104]
0.0625 (≈ 0.165 µM)	2 (≈ 5.27 µM)	CC(=S)NC[C@H]1CN(c2ccc(N3C=NN(C=O)CC3)c(F)c2)C(=O)O1 [Compound 73]
0.5 (≈ 1.1 µM)	4 (≈ 8.82 µM)	COC(=S)NC[C@H]1CN(c2ccc(N3C=NN(CCOC(C)=O)CC3)c(F)c2)C(=O)O1 [Compound 71]
2 (≈ 4.52 µM)	4 (≈ 9.04 µM)	CC(=O)NC[C@H]1CN(c2ccc(N3C=NN(S(=O)(=O)N(C)C)CC3)c(F)c2)C(=O)O1 [Compound 21]
2 (≈ 4.66 µM)	8 (≈ 18.6 µM)	O=C(NC[C@H]1CN(c2ccc(N3C=NN(C(=O)CO)CC3)c(F)c2)C(=O)O1)C(F)F [Compound 47]
4 (≈ 9.68 µM)	16 (≈ 38.7 µM)	CC(=O)NC[C@H]1CN(c2ccc(N3C=NN(S(C)(=O)=O)CC3)c(F)c2)C(=O)O1 [Compound 18]
4 (≈ 9.79 µM)	8 (≈ 19.6 µM)	CCNC(=S)NC[C@H]1CN(c2ccc(N3C=NN(C=O)CC3)c(F)c2)C(=O)O1 [Compound 56]
2 (≈ 5.08 µM)	8 (≈ 20.3 µM)	CC(=O)NC[C@H]1CN(c2ccc(N3C=NN(C(=O)CO)CC3)c(F)c2)C(=O)O1 [Compound 12]
2 (≈ 4.8 µM)	16 (≈ 38.4 µM)	O=CN1CCN(c2ccc(N3C[C@H](CNC(=O)c4ccno4)OC3=O)cc2F)C=N1 [Compound 52]
1 (≈ 2.75 µM)	8 (≈ 22 µM)	CC(=O)NC[C@H]1CN(c2ccc(N3C=NN(C=O)CC3)c(F)c2)C(=O)O1 [Compound 1]
0.5 (≈ 1.2 µM)	8 (≈ 19.1 µM)	O=C(CO)N1CCN(c2ccc(N3C[C@H](CNc4ccon4)OC3=O)cc2F)C=N1 [Compound 87]
2 (≈ 4.77 µM)	8 (≈ 19.1 µM)	CC#CCN1CCN(c2ccc(N3C[C@H](CNC(=S)OC)OC3=O)cc2F)C=N1 [Compound 64]
128 (≈ 274 µM)	> 128	CC(=O)NC[C@H]1CN(c2ccc(N3C=NN(C(=O)N(CCO)CCO)CC3)c(F)c2)C(=O)O1 [Compound 16]
